Data: ChEMBL document CHEMBL1130317 (J Med Chem, 1997)

Experiments:
[1] = biological target: Aldo-keto reductase family 1 member B1 (Rattus norvegicus) (UniProt P07943); test: Inhibitory activity against rat lens aldose reductase(AR) at the concentration of 1*10e-7 M
[2] = biological target: T1, Aldo-keto reductase family 1 member A1 (Rattus norvegicus) (UniProt P51635); test: Percent inhibition of rat kidney Aldehyde reductase (ALR) at 1x10E-4 M
T1 sequence (whole entry): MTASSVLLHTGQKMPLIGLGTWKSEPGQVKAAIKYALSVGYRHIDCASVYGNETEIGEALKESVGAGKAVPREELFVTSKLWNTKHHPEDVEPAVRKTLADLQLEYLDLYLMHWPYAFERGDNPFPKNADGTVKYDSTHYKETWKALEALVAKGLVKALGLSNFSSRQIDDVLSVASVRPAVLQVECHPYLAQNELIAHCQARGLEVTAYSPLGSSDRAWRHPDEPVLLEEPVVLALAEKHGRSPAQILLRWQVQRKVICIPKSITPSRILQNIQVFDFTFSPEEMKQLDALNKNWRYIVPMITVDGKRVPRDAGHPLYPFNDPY

[3] = biological target: T2, Aldo-keto reductase family 1 member A1 (Rattus norvegicus, UniProt P51635); test: In vitro inhibitory activity against rat kidney aldehyde reductase(ALR).
T2 sequence (P51635 whole entry): T1 sequence (whole entry)

[4] = biological target: Aldo-keto reductase family 1 member B1 (Rattus norvegicus, UniProt P07943); test: Inhibitory activity against rat lens aldose reductase(AR).
Rattus norvegicus = species: Rattus norvegicus; test: Ratio of IC50 value of rat kidney ALR to rat lens AR; format: tissue-based; conditions: Lens of camera-type eye

SMILES	inhibition [1]	inhibition [2]	IC50 [3]	IC50 [4]	Ratio (Rattus norvegicus)
O=C(O)CN1C(=O)N(Cc2cccc([N+](=O)[O-])c2)C(=O)C1O (configuration not stated)	44%	11%	> 100 µM		
O=C(O)CN1CC(=O)N(Cc2cccc([N+](=O)[O-])c2)C1=O	38.2%	3.8%	> 100 µM		
C=C1C(=O)N(CC(=O)O)C(=O)N1Cc1cccc([N+](=O)[O-])c1			58 µM	0.032 µM	1810
O=C(O)CN1C(=O)C(=O)N(Cc2cccc([N+](=O)[O-])c2)C1=O		37.3%			
C=C1N(CC(=O)O)C(=O)C(=O)N1Cc1cccc([N+](=O)[O-])c1	17.7%	12.4%	> 100 µM		
O=C(O)CN1C(=O)C(O)N(Cc2cccc([N+](=O)[O-])c2)C1=O (configuration not stated)	5%	19%	> 100 µM		
O=C(O)CN1C(=O)C(=O)N(Cc2cccc([N+](=O)[O-])c2)C1=S			28 µM	0.025 µM	1120
O=C(O)CN1C(=O)CC(=O)N(Cc2cccc([N+](=O)[O-])c2)C1=O	1.5%	33.5%	> 100 µM		

Now from value to compound, other results behind:

inhibition [1]	inhibition [2]	IC50 [3]	IC50 [4]	SMILES	Ratio (Rattus norvegicus)
47.5%				O=C(O)CN1CC(=O)N(Cc2nc3cc(Cl)ccc3s2)C1=O	
	39.5%	> 100 µM	0.016 µM	O=C(O)CN1C(=O)C(=O)N(Cc2ccc(Cl)c([N+](=O)[O-])c2)C1=O	> 6250
27.8%	11.8%	> 100 µM		O=C(O)Cn1c(=O)ccn(Cc2cccc([N+](=O)[O-])c2)c1=O	
	17.4%	> 100 µM	0.034 µM	O=C(O)Cn1ccc(=O)n(Cc2cccc([N+](=O)[O-])c2)c1=O	> 2940
	37%	> 100 µM	0.062 µM	O=C(O)CN1CC(=O)N(Cc2nc3c(Cl)cccc3s2)C1=O	> 1610
4.6%		> 100 µM		O=C(O)CN1C(=O)CN(Cc2cccc([N+](=O)[O-])c2)C1=O	
	26.5%	> 100 µM	0.025 µM	O=C(O)Cn1ccc(=O)n(Cc2ccc(Cl)c([N+](=O)[O-])c2)c1=O	> 4000
		58 µM	0.015 µM	O=C(O)CN1C(=O)C(=O)N(Cc2nc3cc(Cl)ccc3s2)C1=O	3870
	1.6%	> 100 µM	0.024 µM	O=C(O)CN1CC(=O)N(Cc2ccc(Cl)c([N+](=O)[O-])c2)C1=O	> 4170
	32%	> 100 µM	0.0057 µM	O=C(O)Cn1ccc(=O)n(Cc2nc3cc(Cl)ccc3s2)c1=O	> 17500
	39.3%	> 100 µM	0.011 µM	O=C(O)Cn1ccc(=O)n(Cc2nc3c(Cl)cccc3s2)c1=O	> 9090
		72 µM	0.012 µM	O=C(O)CN1C(=O)C(=O)N(Cc2nc3c(Cl)cccc3s2)C1=O	6000
